Test results reported in paper PMC5789148, “Embelin Restores Carbapenem Efficacy against NDM-1-Positive Pathogens” (Frontiers in Microbiology, 2018).

Columns and labels:
Format in all cases: biochemical
[1] = molecular target: T1, NDM-1 (New Delhi metallo-β-lactamase-1) (Klebsiella pneumoniae, UniProt C7C422); assay: meropenem hydrolysis inhibition with purified NDM-1, […] nm (IC50 […])
T1 construct: gene blaNDM-1

IMP-1 = IMP-1 (Serratia marcescens, UniProt P52699); assay: meropenem hydrolysis inhibition assay
VIM-1 = VIM-1 (Pseudomonas aeruginosa, UniProt A0A0F7KYQ8); assay: meropenem hydrolysis inhibition assay
[2] = molecular target: T1, NDM-1 (New Delhi metallo-β-lactamase-1); assay: single-concentration ([…]) meropenem hydrolysis screen with purified NDM-1; details: read-out: % inhibition at 20 μM

T1 sequence (C7C422 29-270 limits assumed): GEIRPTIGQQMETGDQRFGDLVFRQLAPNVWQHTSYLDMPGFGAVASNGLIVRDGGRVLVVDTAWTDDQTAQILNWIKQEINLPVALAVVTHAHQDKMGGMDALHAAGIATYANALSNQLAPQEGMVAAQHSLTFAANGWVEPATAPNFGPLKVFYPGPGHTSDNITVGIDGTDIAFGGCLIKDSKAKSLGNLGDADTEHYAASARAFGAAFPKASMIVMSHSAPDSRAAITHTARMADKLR
Sequence of IMP-1 (P52699 19-246 limits assumed): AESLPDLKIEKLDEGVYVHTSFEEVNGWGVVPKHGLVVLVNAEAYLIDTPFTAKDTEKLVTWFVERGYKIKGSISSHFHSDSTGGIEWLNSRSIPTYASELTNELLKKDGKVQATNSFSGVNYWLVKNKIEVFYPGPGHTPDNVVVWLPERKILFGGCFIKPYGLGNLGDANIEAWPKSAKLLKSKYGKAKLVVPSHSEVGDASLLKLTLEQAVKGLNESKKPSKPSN

Row | Compound | Ki [1] | IC50 (IMP-1) | IC50 (VIM-1) | inhibition at 20 µM [2]
1 | CCCCCCCCCCCC1=C(O)C(=O)C=C(O)C1=O [embelin] | 0.19 ± 0.02 µM | ~100 µM | ~200 µM | 
2 | Oc1ccc(/C=C/c2cc(O)cc(O)c2)cc1 [resveratrol] |  |  |  | > 20%
3 | COc1cc(/C=C/C(=O)CC(=O)/C=C/c2ccc(O)c(OC)c2)ccc1O [curcumine] |  |  |  | > 20%
